Test results published in patent US4980287A, “4H-3,1-benzoxazin-4-one compounds and pharmaceutical compositions thereof for the inhibition of serine proteases” (Teijin Limited, priority 1987, dated 1990).

Experiments:
[1] = biological target: T1, bovine pancreas α-chymotrypsin (Bos taurus, UniProt P00766); test: α-chymotrypsin-inhibitory activity (hydrolysis of succinyl-Ala-Ala-Pro-Phe-p-nitroanilide); assay type: biochemical; settings: for IC50 / Selectivity: Table 10; for IC50: procedure of Example 19 (B); for Selectivity: ratio of IC50 for bovine α-chymotrypsin to IC50 for human purulent sputum elastase
T1 construct: bovine pancreas α-chymotrypsin; purchased Sigma Co; host or cells: bovine pancreas
Description: An in vitro test similar to that mentioned above can be applied to chymotrypsin.
As a chymotrypsin, α-chymotrypsin of bovine pancreas, which is readily available commercially, is used. […] The extent of the hydrolysis of AAPFpNA is measured in the absence of a compound to be tested or in the presence of the compound in various concentrations thereof, and thus a concentration (IC50) of the compound necessary to inhibit 50% of the enzyme reaction can be determined.
(§1) Inhibitory activities of 7-(N-carbobenzoxy-L-phenylalanyl)amino-2-isopropylamino-5-methyl-4H-3,1- benzoxazin-4-one for human purulent sputum elastase, for α-chymotrypsin, for cathepsin G, for trypsin, for thrombin and for plasmin were determined by the following methods and the results are shown in Table 9.
The same procedures as those described in the above item (A) for the human purulent sputum elastase were carried out, with the following exception.
The enzyme-testing tuffer solution contained 2×10^-8 M bovine pancreas α-chymotrypsin (available from Sigma Co.). The synthetic substrate was succinyl-L-alanyl-L-alanyl-L-prolyl-L-henylalanyl-p-nitroanilide (available from Bachem Co.).
An IC50 for the α-chymotrypsin was determined in the same manner as mentioned above. (C) Determination of human cathepsin G-inhibitory activity
(§2) In each of Examples 20 to 37 and Comparative Examples 1 to 4, the same experimental procedures as those described in Example 19, items (A) and (B) were used for determination of enzyme inhibitory activity, except that the compound indicated in Table 10 was tested as an inhibitory compound.
In Table 10, the item "Selectivity" refers to a ratio of an IC50 value for bovine α-chymotrypsin to an IC50 value for human purulent sputum elastase. The larger the value of the ratio, the higher the selectivity of the inhibitory activity for elastase.

[2] = biological target: T2, human purulent sputum elastase (Homo sapiens, UniProt P08246); test: Human purulent sputum elastase-inhibitory activity (hydrolysis of methoxysuccinyl-peptidyl-p-nitroanilide, absorbance at 410 nm); assay type: biochemical; settings: for IC50: Table 10, procedure of Example 19 (A)
T2 construct: purchased Elastin Products Co; host or cells: human purulent sputum
T2 sequence (P08246 30-247 limits assumed): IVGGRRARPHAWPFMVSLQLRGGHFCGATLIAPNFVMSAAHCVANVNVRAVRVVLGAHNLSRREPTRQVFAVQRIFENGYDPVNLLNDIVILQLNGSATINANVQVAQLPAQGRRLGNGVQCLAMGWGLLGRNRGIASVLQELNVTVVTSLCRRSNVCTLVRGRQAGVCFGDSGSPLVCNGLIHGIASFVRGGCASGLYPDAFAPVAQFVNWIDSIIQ
Source text: Human purulent sputum elastase is believed to be the same enzyme as human leukocyte elastase, as described by Tomashi et al. (J. BIOL. CHEM., vol. 252, pages 1917 to 1924 (1977)), and can be easily obtained commercially.
The extent of the hydrolysis of AAPVpNA by human purulent sputum elastase can be easily determined by measuring the amount of p-nitroaniline released from AAPVpNA, by a spectrophotometer. Then, by comparing the extent of hydrolysis of AAPVpNA by the human purulent sputum elastase in the absence of a compound to be tested with that in the presence of the compound to be tested in various concentrations, a concentration (IC50) of the compound to be tested necessary to inhibit 50% of the elastase reaction can be determined.
as §1
The testing buffer (pH7.5) consisted of 0.1M N-2-hyiroxyethylpiperazine-N'-2-ethanesulfonic acid, 1M sodium chloride and 0.1% w/v polyethylene glycol 6000.
Human purulent sputum elastase was obtained from Elastin Products Co., and adjusted to 1.5×10^-8 M in the testing buffer.
Methoxysuccinyl-[…]-p-nitroanilide was obtained from Bachem Co., and made to 10 mM in dimethyl sulfoxide.
Procedure To 2.4ml of testing buffer in a cell set at 37° in a spectrophotometer (Hitachi U-3200) with a temperature controlled cell holder were added 25 μl of substrate solution and 25 μl of acetonitrile with or without inhibitory compounds, and the resultant mixture was stirred. Reactions were initiated by addition of 50 μl of the enzyme solution and hydrolysis of the substrate was monitored by measuring a change of light absorbance at 410 nm. The concentration (IC50) at which 50% of the activity of human purulent sputum elastase was inhibited was determined for each inhibitory compound from a steady state velocity of the substrate hydrolysis.
as §2

human plasmin = biological target: T3, human plasmin (Homo sapiens, UniProt P00747); test: Plasmin-inhibitory activity; assay type: biochemical; settings: Table 9
T3 construct: human plasmin; purchased Daiichi Kagaku Yakuhin K.K
T3 sequence (P00747 581-810 limits assumed): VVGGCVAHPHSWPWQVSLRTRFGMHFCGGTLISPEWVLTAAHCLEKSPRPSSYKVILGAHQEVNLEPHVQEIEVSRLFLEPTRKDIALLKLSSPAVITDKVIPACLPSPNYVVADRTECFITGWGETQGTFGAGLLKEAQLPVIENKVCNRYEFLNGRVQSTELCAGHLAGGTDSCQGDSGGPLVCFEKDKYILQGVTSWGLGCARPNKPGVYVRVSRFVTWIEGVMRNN
T3 sequence (P00747 97-580 partner limits assumed): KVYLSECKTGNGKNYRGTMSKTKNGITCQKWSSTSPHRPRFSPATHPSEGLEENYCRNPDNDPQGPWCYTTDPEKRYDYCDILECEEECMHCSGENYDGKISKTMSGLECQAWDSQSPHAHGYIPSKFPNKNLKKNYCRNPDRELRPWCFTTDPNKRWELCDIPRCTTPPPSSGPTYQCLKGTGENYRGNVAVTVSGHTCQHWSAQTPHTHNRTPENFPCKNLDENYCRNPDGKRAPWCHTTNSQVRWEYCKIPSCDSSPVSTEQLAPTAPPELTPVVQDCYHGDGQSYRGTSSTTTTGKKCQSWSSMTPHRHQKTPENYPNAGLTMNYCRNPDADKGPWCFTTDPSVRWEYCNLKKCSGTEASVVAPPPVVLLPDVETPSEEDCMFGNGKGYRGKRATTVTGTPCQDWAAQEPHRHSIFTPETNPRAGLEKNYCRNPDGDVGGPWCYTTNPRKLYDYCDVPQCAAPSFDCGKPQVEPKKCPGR
Description: as §1
The same procedures as those described in item (A) were carried out except that the enzyme testing buffer solution contained 0.6 CasU/ml human plasmin (available from Daiichi Kagaku Yakuhin K.K.) and the substrate consisted of D-valyl-L-leucyl-L-lysyl-p-nitro-anilide (available from Daiichi Kagaku Yakuhin K.K.).
An IC50 for the human plasmin was determined in the same manner as mentioned above.

human thrombin = biological target: T4, human thrombin (Homo sapiens, UniProt P00734); test: Thrombin-inhibitory activity; assay type: biochemical; settings: Table 9
T4 construct: human thrombin; purchased Daiichi Kagaku Yakuhin K.K
Description: as §1
The same procedures as those described in item (A) were carried out except that the enzyme-testing buffer solution contained 0.04 μkat/ml human thrombin (available from Daiichi Kagaku Yakuhin K.K.) and the substrate consisted of D-phenylalanyl-pipecolyl-arginyl-p-nitroanilide (available from Daiichi Kagaku Yakuhin K.K.).
An IC for the human thrombin was determined in the same manner as mentioned above.

[3] = Stability in human serum (37° C., HPLC peak area); assay type: in vitro ADME
Description: A solution of […] of 7-(N-carbobenzoxy-L-phenylalanyl)amino-2-isopropylamino-5-methyl-4H-3,1-benzoxazin-4-one in 50 μl acetonitrile was mixed with 0.45 ml of human serum, and the resultant mixture was allowed to stand at a temperature of 37° C. The mixture was subjected to treatment with a Sep-pac C18 cartridge (trademark, made by Waters Cc.) for removal of protein, and a portion of the resultant acetonitrile-eluted fraction was subjected to a high speed liquid chromatographic analysis.

[4] = ratio of IC50 for the protease to IC50 for human purulent sputum elastase
[5] = Table 9, ratio of IC50 for the protease to IC50 for human purulent sputum elastase

Compound	IC50 [1] [µM]	Selectivity [1]	IC50 [2] [µM]	further results
CC(C)Oc1nc2cc(NC(=O)[C@H](Cc3ccccc3)NC(=O)OCc3ccccc3)ccc2c(=O)o1 [Example 24]	0.34	31	0.011	–
O=c1oc(C(F)(F)F)nc2ccccc12 [compound 1, reference compound]	0.68	0.10	6.2	–
CC(C)Oc1nc2cc(NC(=O)[C@H](C)NC(=O)OCc3ccccc3)ccc2c(=O)o1 [Example 22]	0.37	4.8	0.077	–
CC(C)Oc1nc2cc(NC(=O)[C@@H](NC(=O)[C@@H]3CCCN3C(=O)OCc3ccccc3)C(C)C)ccc2c(=O)o1 [Example 32]	0.12	5.8	0.02	–
Cc1cccc2nc(OC(C)C)oc(=O)c12 [compound 4, reference compound]	0.12	2.9	0.041	–
Cc1nc2cc(NC(=O)[C@H](Cc3ccccc3)NC(=O)OCc3ccccc3)ccc2c(=O)o1 [Example 37, 7-(N-carbobenzoxy-L-phenylalanyl)amino-2-methyl-4H-3,1-benzoxazin4-one]	160	31	5.1	–
O=C(Nc1ccc2c(=O)oc(C(F)(F)F)nc2c1)[C@@H]1CCCN1C(=O)OCc1ccccc1 [Example 20, 7-(N-carbobenzoxy-L-prolyl)amino-2-trifluoromethyl-4H-3,1-benzoxazin-4-one]	17	7.7	2.2	–
CC(C)Oc1nc2cc(NC(=O)[C@@H]3CCCN3C(=O)OC(C)(C)C)ccc2c(=O)o1 [Example 28]	0.13	3.7	0.035	–
CC(C)Oc1nc2cc(NC(=O)[C@@H]3CCCN3C(=O)[C@H](C)NC(=O)OCc3ccccc3)ccc2c(=O)o1 [Example 31]	0.18	5.6	0.032	–
CC(C)Oc1nc2cc(NC(=O)[C@H](Cc3ccccc3)NC(=O)OC(C)(C)C)ccc2c(=O)o1 [Example 29]	0.094	2.0	0.046	–
Cc1cc(NC(=O)[C@H](Cc2ccccc2)NC(=O)OCc2ccccc2)cc2nc(OC(C)C)oc(=O)c12 [Example 34, 7-(N-carbobenzoxy-L-phenylalanyl)amino-2-isopropoxy-5-methyl-4H-3,1-benzoxazin-4-one]	0.01	18	0.00055	–
CC(C)Oc1nc2cc(NC(=O)[C@@H]3CCCN3C(=O)OCc3ccccc3)ccc2c(=O)o1 [Example 21, 7-(N-carbobenzoxy-L-prolyl)amino-2-isopropoxy-4H-3,1-benzoxazin-4-one]	0.17	3.9	0.044	–
CC(C)Oc1nc2cc(NC(=O)[C@H](CCCCNC(=O)OCc3ccccc3)NC(=O)OCc3ccccc3)ccc2c(=O)o1 [Example 25]	0.58	41	0.014	–
CC(=O)Nc1ccc2c(=O)oc(OC(C)C)nc2c1 [compound 3, reference compound]	0.032	0.55	0.058	–
CC(C)Oc1nc2cc(NC(=O)[C@@H](NC(=O)[C@H](Cc3ccccc3)NC(=O)OCc3ccccc3)C(C)C)ccc2c(=O)o1 [Example 33]	0.18	5.6	0.021	–
CC(C)Oc1nc2ccccc2c(=O)o1 [compound 2, reference compound]	0.022	0.44	0.049	–
CC(=O)N1CCC[C@H]1C(=O)Nc1ccc2c(=O)oc(OC(C)C)nc2c1 [Example 30]	0.49	3.8	0.13	–
CC(C)Oc1nc2cc(NC(=O)[C@@H](NC(=O)OCc3ccccc3)C(C)C)ccc2c(=O)o1 [Example 23]	0.16	6.6	0.024	–
Cc1cc(NC(=O)[C@H](Cc2ccccc2)NC(=O)OCc2ccccc2)cc2nc(NC(C)C)oc(=O)c12 [Example 36, 7-(N-carbobenzoxy-L-phenylalanyl)amino-5-methyl-2-isopropylamino-4H-3,1-benzoxazin-4-one]	0.025	19	0.0013	IC50 (human plasmin; 0.6 CasU/ml enzyme): 75 µM; Selectivity, human plasmin (human plasmin; [4]): 58,000; IC50 (human thrombin; 0.04 μkat/ml enzyme): > 100 µM; Selectivity, human thrombin (human thrombin; [4]): > 100,000; half-life [3]: 2.5 h; Selectivity, bovine pancreas α-chymotrypsin [1, 5]: 19; Selectivity, human purulent sputum elastase [2, 5]: 1
CC(C)Oc1nc2cc(NC(=O)[C@@H](Cc3ccccc3)NC(=O)OCc3ccccc3)ccc2c(=O)o1 [Example 27]	0.49	12	0.041	–
CC(C)Oc1nc2cc(NC(=O)[C@H](CCC(=O)OCc3ccccc3)NC(=O)OCc3ccccc3)ccc2c(=O)o1 [Example 26]	> 0.5	> 20	0.026	–
